Measured values reported in patent publication US20220275534A1, “Peptide Library Production Method” (The University of Tokyo, priority 2018, published 2022).
Positions of bridges follow the written chain, without caps; N, C: chain ends. Non-standard residues stand in square brackets, D forms with d. No end group written: not given here.

Tests used:
[1] = test system: OltF; assay: Prenylation of Trp present at N terminal with OltF (Example 23); format: biochemical, Planktothrix; settings: 100 μM OltF, 2.1 mM DMAPP, 37° C., 18 hours (FIG. 19, FIG. 20)
OltF, sequence (as listed by the source): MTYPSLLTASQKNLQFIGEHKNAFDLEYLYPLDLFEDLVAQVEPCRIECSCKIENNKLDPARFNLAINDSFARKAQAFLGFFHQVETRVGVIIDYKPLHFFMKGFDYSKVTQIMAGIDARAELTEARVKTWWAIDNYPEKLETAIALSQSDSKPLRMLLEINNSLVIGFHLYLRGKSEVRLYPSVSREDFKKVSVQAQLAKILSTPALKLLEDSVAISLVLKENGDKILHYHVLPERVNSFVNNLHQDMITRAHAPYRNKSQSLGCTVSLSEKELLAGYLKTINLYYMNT
Description: The cyclic peptide shown below was obtained by translation and synthesis under the following (Conditions 32) in the artificial translation system developed by the present inventors. The translated mixture thus obtained was then reacted (prenylated) under the following (Conditions 33).
(Conditions 32) • 19aa-mix (19 kinds of proteinogenic amino acids other than M)]: 0.5 mM • ClAc-D-Tyr-tRNA^fMetCUA: 50 μM • Reaction: 37° C. and 30 minutes in an artificial translation-system solution. • Scale: 2.5 μL scale
(Conditions 33) • Translated mixture amount: 2.5 μL (mixture obtained under (Conditions 32)) • OltF: 100 μM • DMAPP: 2.1 mM • Reaction: 37° C., 18 hours • Scale: 5.7 μL scale

[2] = test system: KgpF; assay: Modification of the same peptides with KgpF in liquid phase, Conditions 13/14 with 14 hours (Example 18; Table 17); format: biochemical, Microcystis aeruginosa; set-up: key: 5: strong intensity; 4: medium intensity; 3: weak intensity; 2: very weak intensity; 1: no peak; N/A: not observed; settings: KgpF Liquid phase 160 μM
KgpF, sequence (as listed by the source): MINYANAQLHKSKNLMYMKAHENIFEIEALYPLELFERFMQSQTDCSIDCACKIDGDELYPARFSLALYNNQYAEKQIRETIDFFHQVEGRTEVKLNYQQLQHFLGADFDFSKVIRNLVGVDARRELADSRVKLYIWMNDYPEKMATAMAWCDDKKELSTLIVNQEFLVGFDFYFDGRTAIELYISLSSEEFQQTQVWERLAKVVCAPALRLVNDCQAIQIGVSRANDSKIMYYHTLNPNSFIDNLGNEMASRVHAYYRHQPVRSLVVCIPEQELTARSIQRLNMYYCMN
Description: (Conditions 13) • FIT system: v8s/v11.0 • 19aa-Met: 0.5 mM • ClAc-D-Tyr-tRNA^fMetCUA: 90 μM • Reaction: 37° C., 60 min. • Scale: 2.5 μL scale
(§1) After the above reaction was performed, the reaction product was incubated at 25° C. for 12 minutes.
(§2) Then, a cyclization reaction was performed under the following conditions. • Translated mixture amount: 2.5 μL (mixture obtained by the above reaction) • EDTA: 18 mM • Reaction: 42° C., 60 min. • Scale: 2.75 μL scale
(Conditions 14) • Translated mixture amount: 2.75 μL (mixture obtained under (Conditions 13)) • KOH: 6.0 mM • Mg(OAc)2: 9.0 mM • Tris-HCl (pH 8.3) 15 mM • KgpF: 160 μM • DMAPP: 2 mM • Reaction: 0° C., 20 hours
(§3) The artificial cyclic peptides shown in Table were synthesized under (Conditions 25) and were brought into contact with KgpF in solid phase under (Conditions 26). In addition, the same peptides were reacted in liquid phase under conditions shown in (Conditions 13) and (Conditions 14) except that the prenylation reaction time was changed to 14 hours.

[3] = test system: KgpF immobilized onto magnetic beads; assay: Modification of artificial cyclic peptides with KgpF immobilized onto magnetic beads, solid phase (Example 18; Table 17); format: biochemical, Microcystis aeruginosa; set-up: key: 5: strong intensity; 4: medium intensity; 3: weak intensity; 2: very weak intensity; 1: no peak; N/A: not observed; settings: KgpF Solid phase (magnetic beads) 72 μM, 4° C., 14 hours
From the text: Dynabeads His-Tag Isolation and Pulldown (Invitrogen) was brought into contact with KgpF having a His-tag added N terminal and the KgpF was immobilized onto the magnetic beads. […] When it exceeded a predetermined amount, immobilization reached saturation.
as §3
(Conditions 25) • FIT system: v8s/v11.1 • 19aa-Met: 0.5 mM • ClAc-D-Tyr-tRNA^fMetCUA: 90 μM • Reaction: 37° C., 60 min. • Scale: 2.5 μL scale
as §1, §2
(Conditions 26) • Translated mixture amount: 2.75 μL (mixture obtained under (Conditions 25)) • KOH: 6.0 mM • Mg(OAc)2: 9.0 mM • Tris-HCl (pH 8.3) 15 mM • KgpF immobilized onto magnetic beads: 72 μM • DMAPP: 2 mM • Reaction: 4° C., 14 hours, rotation mixing

[4] = target: MetAP1 (Homo sapiens, UniProt P53582); assay: MetAP1 inhibition test of prenylated cyclic peptide (probe fluorescence); format: biochemical; settings: prenylated peptide at 1 μM, 5 μM or 10 μM; cofactor Mn2+ or Co2+ 100 μM; MetAP1 1 μM; 37° C., 120 min (FIG. 13)
Description: A MetAP1 inhibition test was performed in vitro using the prenylated Met2, Met3a-L, and Met3-1 at concentrations of 1 μM, 5 μM or 10 μM in the presence of a MetAP1 cofactor Mn^2+ or Co^2+. In the test, enzymatic activity was measured by detecting probe fluorescence, that is, fluorescence emitted depending on the enzymatic activity of MetAP1.
(Conditions) • Scale: 20 μL • Cyclic peptide: 1, 5, 10 μM • MnCl2 or CoCl2: 100 μM • MetAP1 enzymatic activity probe: 1 μM • MetAP1: 1 μM • Tris (pH7.6): 25 mM • NaCl: 75 mM • Reaction: 37° C., 120 min.
After the reaction, the fluorescence intensity of the probe was measured using a plate reader.

[5] = test system: KgpF; assay: Prenylation of translated thioether-closed artificial cyclic peptides with KgpF, MALDI-TOF-MS analysis (Examples 1-9; 37° C., 18 hours); format: biochemical, Microcystis aeruginosa; settings: Examples 4-7: 160 μM KgpF, 2 mM DMAPP
Description: With regards to each of KgpF and OltF, heterogeneous co-expression of a gene synthesized after optimizing the codon of a gene derived from a producing strain was performed in Escherichia coli, followed by purification to obtain a prenylation enzyme.
The analysis was performed using UltrafleXtreme (Bruker Daltonics) or Autoflex II (Bruker Daltonics) and peptide calibration standard II (Bruker Daltonics).
In short, six kinds in total of peptides were obtained by translation and synthesis under (Conditions 1) of the artificial translation system developed by the present inventors. The peptides thus obtained were then reacted with 14.7 μM KgpF at 37° C. for 18 hours in the system shown in (Conditions 2). “DMAPP” used in (Conditions 2) is dimethylallyl pyrophosphoric acid.
(Conditions 1) • FIT system: v7s/v8.0.3 • 19aa-Met: 0.5 mM • ClAc-D or L-Trp-tRNA^fMetCUA: 90 μM • Reaction: 37° C., 60 min. • Scale: […] scale
(Conditions 2) • Translated mixture amount: 2.5 μL (mixture obtained under (Conditions 1)) • KgpF: 14.7 μM • DMAPP: 2 mM • Total amount: 15.7 μL • Reaction: 37° C., 18 hours
The YG280 sequences having the steric configuration of the N terminal Trp serving as an initiation residue of D-form and those of L-form were synthesized, so that two kinds of peptides were prepared in total. These two kinds of artificial cyclic peptides were obtained by translation and synthesis in the artificial translation system (Conditions 3) developed by the present inventors. The peptides thus obtained were then reacted with 53, 160, and 580 μM KgpF in a system shown in (Conditions 4) at 37° C. for 18 hours.
(Conditions 3) • FIT system: v7s/v8.0.3 • 19aa-Met: 0.5 mM • ClAc-D or L-Trp-tRNA^fMetCUA: 120 μM • Reaction: 37° C., 3 hours • Scale: 2.5 μL scale
(Conditions 4) • Translated mixture amount: 2.5 μL (mixture obtained under (Conditions 3)) • KgpF: 53, 160, 580 μM • DMAPP: 2 mM • Reaction: 37° C., 18 hours
(§4) The above three kinds of artificial cyclic peptides were obtained by translation and synthesis in the artificial translation system (Conditions 5) developed by the present inventors. The peptides thus obtained were then reacted with KgpF in the system shown below in (Conditions 6) at 37° C. for 18 hours.
(Conditions 5) • FIT system: v7s/v8.0.3 • 19aa-Met: 0.5 mM • ClAc-D or L-Trp-tRNA^fMetCUA: 90 μM • Reaction: 37° C., 60 min. • Scale: 2.5 μL scale
(Conditions 6) • Translated mixture amount: 2.5 μL (mixture obtained under (Conditions 5)) • KgpF: 160 or 580 μM • DMAPP: 2 mM • Reaction: 37° C., 18 hours
as §4, with “six” for “three”, “7)” for “5)”, “with 160 μM” for “with”, “shown” for “shown below”, “8)” for “6)”
(Conditions 7) • FIT system: v7s/v9.1 • 19aa-Met: 0.5 mM • ClAc-D-Tyr-tRNA^fMetCUA: 90 μM • Reaction: 37° C., 60 min. • Scale: 2.5 μL scale
(Conditions 8) • Translated mixture amount: 2.5 μL (mixture obtained under (Conditions 7)) • KgpF: 160 μM • DMAPP: 2 mM • Reaction: 37° C., 18 hours
as §4, with “9)” for “5)”, “with 160 μM” for “with”, “shown” for “shown below”, “10)” for “6)”
(Conditions 9) • FIT system: v7s/v9.1 • 19aa-Met: 0.5 mM • ClAc-D-Tyr-tRNA^fMetCUA: 90 μM • Reaction: 37° C., 60 min. • Scale: 2.5 μL scale
(Conditions 10) • Translated mixture amount: 2.5 μL (mixture obtained under (Conditions 9)) • KgpF: 160 μM • DMAPP: 2 mM • Reaction: 37° C., 18 hours
The above artificial cyclic peptides were obtained by translation and synthesis in the artificial translation system (Conditions 11) developed by the present inventors. […]

[6] = test system: KgpF v 3.1; assay: Prenylation of artificial cyclic peptides with 10 μM KgpF v 3.1 (Example 11; Table 7); format: biochemical, Microcystis aeruginosa; set-up: key: 5: strong intensity; 4: medium intensity; 3: weak intensity; 2: very weak intensity; 1: no peak; N/A: not observed; settings: KgpF v 3.1 10 μM
Description: Reaction of the artificial cyclic peptide shown in Table 7 was made under conditions similar to (Conditions 11) and (Conditions 12) except that v8s/v11.1 was used as FIT system, KgpF v 3.1 was used as a prenylation modification enzyme, and the concentration of the KgpF v 3.1 was set at 10 μM. Here, KgpF v 3.1 is an enzyme having a higher purification degree and more improved specific activity than KgpF used under (Conditions 12).

AY015: cyclic peptide containing a Trp at N terminal position, SEQ ID NO: 372 (WSNFRIARYSNSSC; also: cyclic)
prenylation modification with OltF (MALDI-TOF-MS) [1]: Trp at the N terminal position was prenylated

AY016: cyclic peptide containing a Trp at N terminal position, SEQ ID NO: 373 (WHDYRIARYHTYPC; also: cyclic)
prenylation modification with OltF (MALDI-TOF-MS) [1]: Trp at the N terminal position was prenylated

AY017: cyclic peptide containing a Trp at N terminal position, SEQ ID NO: 374 (WCDVSGRAGYFPC; also: cyclic)
prenylation modification with OltF (MALDI-TOF-MS) [1]: Trp at the N terminal position was prenylated

AY018: cyclic peptide containing a Trp at N terminal position, SEQ ID NO: 375 (WNNRERGSDDDAGGPC; also: cyclic)
prenylation modification with OltF (MALDI-TOF-MS) [1]: Trp at the N terminal position was prenylated

AY019: cyclic peptide containing a Trp at N terminal position, SEQ ID NO: 376 (WSNVSGRAGYFPC; also: cyclic)
prenylation modification with OltF (MALDI-TOF-MS) [1]: Trp at the N terminal position was prenylated

AY020: cyclic peptide containing a Trp at N terminal position, SEQ ID NO: 377 (WSNRERGSDDDAGGPC; also: cyclic)
prenylation modification with OltF (MALDI-TOF-MS) [1]: Trp at the N terminal position was prenylated

Clone-T2 (Ac-[dY]LVRERENTWKVTC; thioether (positions not given here); not fully specified (bridges))
Peak intensity, The number of prenyl groups added 0 [2]: 1
Peak intensity, The number of prenyl groups added 1 [2]: 4
Peak intensity, The number of prenyl groups added 0 [3]: 1
Peak intensity, The number of prenyl groups added 1 [3]: 5

Clone-V3 (Ac-[dY]VWNVKIKPKTTKC; thioether (positions not given here); not fully specified (bridges))
Peak intensity, The number of prenyl groups added 0 [2]: 1
Peak intensity, The number of prenyl groups added 1 [2]: 5
Peak intensity, The number of prenyl groups added 0 [3]: 1
Peak intensity, The number of prenyl groups added 1 [3]: 5

Met2: cyclic peptide SEQ ID NO: 361 from MetAP1 screening, Fmoc solid-phase synthesis, prenylated with KgpF (YKRRHCLPPAWG; also: cyclic, ring not given here, prenylated with KgpF)
inhibition of the enzymatic activity of MetAP1 [4]: inhibit the enzymatic activity of MetAP1

YG289-S2iD7: cyclic peptide obtained by translation and synthesis ({CH2CO}-[dY]HDYRIWRYHTYPC; thioether N-14 (inferred))
prenylation modification with KgpF (MALDI-TOF-MS) [5]: modified with a prenyl group
Peak intensity, The number of prenyl groups added 0 [6]: 1
Peak intensity, The number of prenyl groups added 1 [6]: 5

YG292-PaktiL5: cyclic peptide obtained by translation and synthesis ({CH2CO}-[dY]IRRPWVPIIYLGC; thioether N-14 (inferred))
prenylation modification with KgpF (MALDI-TOF-MS) [5]: modified with a prenyl group
Peak intensity, The number of prenyl groups added 0 [6]: 1
Peak intensity, The number of prenyl groups added 1 [6]: 5

YG297-aMD4: cyclic peptide obtained by translation and synthesis ({CH2CO}-[dY]RQFNRRTHEVWNLDC; thioether N-16 (inferred))
prenylation modification with KgpF (MALDI-TOF-MS) [5]: modified with a prenyl group
Peak intensity, The number of prenyl groups added 0 [6]: 1
Peak intensity, The number of prenyl groups added 1 [6]: 5
